{"source": "patent US12441988B2", "about": "“Engineered adult-like human heart tissue” (THE TRUSTEES OF COLUMBIA UNIVERSITY IN THE CITY OF NEW YORK, priority 2015, dated 2025)", "assay_type_in_all_cases": "cell-based, human", "key": {"TS organoids [1]": {"tested_on": "TS organoids", "test": "Timothy Syndrome disease model, calcium transients and EADs", "protocol": "Timothy Syndrome hiPSCs were generated and differentiated into CMs as previously described. Briefly, fibroblasts were isolated from patients with Timothy Syndrome (TS line) and a control healthy fibroblast line (#3, IMR90 cell line) and transduced by lipofection using established episomal vectors. […] 2 μM IWP-3 (Wnt inhibitor, #SML0533, Lot #102m4613V, Sigma-Aldrich) was added for days 5-11, in DF20 for days 5-7 and DF5 for day 7 onwards.\n(§1) Tissues (organoids and FCTs) within culture platforms were loaded with Fluo-4 NW (50% v/v, Life Technologies) in RPMI+B27 media containing 5 μM blebbistatin (Sigma) to reduce movement artifacts, for 30 minutes at 37° C. Videos were acquired at a rate of 150 frames per second using a Pike F-032 camera (Allied Vision Technologies) controlled by the custom designed, free-source SPLASSH software. Videos were analyzed in MATLAB using a custom script that calculated the temporal changes in calcium fluorescence intensity. Specifically, each frame was normalized to a baseline background region to give baseline-corrected changes in minimum and maximum fluorescence values for each frame. This temporal change in fluorescence intensity was presented as a calcium transient trace from which measurements were obtained.\n(§2) Calcium transients were analyzed to measure the irregularity of various parameters as previously described. Briefly, the calcium transient “timing” was determined as the peak-to peak value of two successive beats as defined by the peak maxima. Calcium transient “amplitude” was determined by numerically integrating the area below the peak maxima relative to the baseline. […] The average rhythmicity was defined as the ratio of the parameter standard deviation to the parameter mean of the corresponding (control, constant, intensity) tissue group. Beats with parameter measurements falling outside two standard deviations from the average rhythmicity were classified as irregular."}, "hiPS-CM organoids [2]": {"tested_on": "hiPS-CM organoids", "test": "Dose response curves of drugs in engineered cardiac tissue (beat frequency, force, EC50)", "details": "for beat frequency (BPM): engineered cardiac micro-tissue, increasing drug concentrations", "protocol": "Tissue contractility was measured by tracking the change in the projected tissue area as a function of time. Live cell, bright field videos were acquired at rates of 150 frames per second using a Pike F-032b (Allied Vision Technologies) camera controlled with the custom […] software. Acquired video frames were inverted and an automated intensity threshold was used to identify cell location in the video frame. First, a baseline time point in the video corresponding to a relaxed tissue state was selected. Absolute differences in cell area from the baseline frame were then calculated to create a time course of cell area dynamics as a function of time. The resulting time courses were analyzed with a native MATLAB automated peak finding algorithm to determine locations of maximum cell contraction indicated by the locations of local maxima in the time courses. Beat period lengths were determined from the length of time between pairs of local maxima. Beat frequencies were determined by inverting beat periods. Contraction amplitude relaxation times were measured from the length of time required for the time course to relax in amplitude from the peak contraction amplitude of the local maxima to the calculated relaxation amplitude (e.g. the […] time was the length of time elapsed from the local maxima until the contraction time course reached 10% of the local maximum contraction difference amplitude). Drugs were diluted in standard media (RPMI+B27). […] Tissue videos were captured≥5 minutes after each dose was administered, and processed using custom image processing software as discussed above. For chronotropic drugs, bright field videos were taken at each drug concentration so that measurements of the beat frequency could be determined as a function of drug concentration. For ionotropic drugs, tissues were placed in the organ bath and force measurements were recorded as previously described at each drug concentration so that the measurements of the change in force generated could be determined as a function of drug concentration. Dose-response curves for these parameters could be constructed by using Matlab to fit the Hill Equation for sigmoid curves to the data, to determine the corresponding EC50 value."}, "hiPS-CM organoids [3]": {"tested_on": "hiPS-CM organoids", "test": "Calcium handling (Fluo-4 calcium transients) in organoids and FCTs", "details": "for calcium transients after drug: organoids and FCTs, verapamil or 0.002 mM thapsigargin", "protocol": "Calcium transients were analyzed using the Fluo-4 NW dye in RPMI+B27 media containing 5 μM blebbistatin to reduce movement artifacts, for 30 minutes at 37° C. Videos were acquired at a rate of 150 frames per second using a Pike F-032 camera controlled by the custom-designed, free-source SPLASSH software. Videos were analyzed in MATLAB using a custom script that calculated the temporal changes in calcium fluorescence intensity. Each frame was normalized to a baseline background region to give baseline corrected changes in minimum and maximum fluorescence values for each frame. This temporal change in fluorescence intensity was presented as a calcium transient trace. The calcium transient timing was determined as the peak-to-peak value of two successive beats as defined by the peak maxima. Calcium transient amplitude was determined by numerically integrating the area below the peak maxima relative to the baseline. […] The average rhythmicity was defined as the ratio of the parameter standard deviation to the parameter mean of the corresponding (control, constant, intensity) tissue group. Beats with parameter measurements falling outside two standard deviations from the average rhythmicity were classified as irregular.\nas §1, §2"}, "hiPS-CM organoids [4]": {"tested_on": "hiPS-CM organoids", "test": "Force measurements (twitch tension, organ bath)", "details": "intensity-trained organoids versus other organoids and FCTs"}, "TS organoids [5]": {"tested_on": "TS organoids", "test": "Timothy Syndrome disease model, force generation in response to extracellular calcium", "details": "Ca2+ overload with decreased force"}}, "note": "“Also recorded” adds a separate entry of the source.", "data": [{"compound": "Cn1c(=O)c2c(ncn2C)n(C)c1=O", "note": "[caffeine]", "values": [{"measurement": "release of Ca2+ by caffeine after nifedipine", "setting": "TS organoids [1]", "value": "released Ca2+ back into the cytosol"}]}, {"compound": "COc1cc(N)c(Cl)cc1C(=O)NC1CCN(CCCOc2ccc(F)cc2)CC1OC", "note": "(stereo not drawn) [cisapride]", "values": [{"measurement": "incidence of EADs", "setting": "TS organoids [1]", "value": "increased incidence of EADs"}, {"measurement": "beat frequency (BPM)", "setting": "hiPS-CM organoids [2]", "value": "opposite effect"}, {"measurement": "proarrhythmic Early After Depolarizations", "setting": "hiPS-CM organoids [3]; female cardiac organoids, 1 μM", "value": "increased proarrythmic Early After Depolarizations"}, {"measurement": "intracellular calcium transients, early after-depolarizations (EADs)", "setting": "hiPS-CM organoids [3]; intensity-trained organoids, increasing concentrations", "value": "prolonged"}, {"measurement": "proarrhythmic tendencies", "setting": "hiPS-CM organoids [3]; other (not intensity-trained) organoids and FCTs", "value": "did not recapitulate proarrythmic tendencies"}]}, {"compound": "CNC[C@H](O)c1ccc(O)c(O)c1", "note": "[epinephrine]", "values": [{"measurement": "incidence of EADs", "setting": "TS organoids [1]", "value": "increased incidence of EADs"}]}, {"compound": "CC(C)NCC(O)c1ccc(O)c(O)c1", "note": "(stereo not drawn) [isoproterenol]", "values": [{"measurement": "calcium transients, QT intervals, EADs under β-adrenergic stimulation", "setting": "TS organoids [1]", "value": "increased calcium transients, prolonged QT intervals, and led to proarrhythmic EADs"}, {"measurement": "beat frequency (BPM)", "setting": "hiPS-CM organoids [2]", "value": "increases with increasing concentrations"}, {"measurement": "ionotropic, lusitropic and chronotropic responses", "setting": "hiPS-CM organoids [2]; intensity-trained organoids", "value": "positive ionotropic (FIG. 23A), lusitropic (FIG. 23B), and chronotropic (FIG. 23C) responses; also recorded: dose-dependent effect on three functional properties"}, {"measurement": "twitch tension", "setting": "hiPS-CM organoids [4]", "value": "responded by increasing twitch tension"}, {"measurement": "twitch tension", "setting": "hiPS-CM organoids [4]; listed as Isoprenaline", "value": "significantly increased their twitch tension"}]}, {"compound": "O=C1c2c(O)ccc(O)c2C(=O)c2c(NCCNCCO)ccc(NCCNCCO)c21", "note": "[mitoxantrone]", "values": [{"measurement": "beat frequency (BPM)", "setting": "hiPS-CM organoids [2]", "value": "opposite effect"}]}, {"compound": "CC(C)NCC(O)COc1cccc2ccccc12", "note": "(stereo not drawn) [propranolol]", "values": [{"measurement": "force generation in response to extracellular calcium", "setting": "TS organoids [5]", "value": "reversed some of these effects"}]}, {"compound": "C/C=C(/C)C(=O)O[C@H]1C(C)=C2[C@H]([C@@H]1OC(=O)CCCCCCC)[C@@](C)(OC(C)=O)C[C@H](OC(=O)CCC)[C@@]1(O)[C@H]2OC(=O)[C@@]1(C)O", "note": "[thapsigargin]", "values": [{"measurement": "calcium transients after drug", "setting": "hiPS-CM organoids [3]", "value": "calcium transients ceased quickly in intensity-trained organoids"}]}, {"compound": "COc1ccc(CCN(C)CCCC(C#N)(c2ccc(OC)c(OC)c2)C(C)C)cc1OC", "note": "(stereo not drawn) [verapamil]", "values": [{"measurement": "rescue of the TS phenotype", "setting": "TS organoids [1]; therapeutic concentrations", "value": "rescued the phenotype"}, {"measurement": "calcium transients after drug", "setting": "hiPS-CM organoids [3]", "value": "cessation of calcium transients in all tissues; also recorded: cessation of Ca2+ transients"}]}, {"compound": "ryanodine", "values": [{"measurement": "response to ryanodine", "setting": "hiPS-CM organoids [3]; 1 μmol/L, early-stage versus late-stage intensity trained organoids", "value": "intensity trained early-stage but not late-stage organoids respond"}]}]}
